Patent US20220289731A1, “MELANOCORTIN-4 RECEPTOR AGONISTS” (LG CHEM, LTD., priority 2019, published 2022)
pEC50, pKi: −log10 of the molar value. Counter-ions that a name gives are not always drawn.

Experiments:
[1] = system: mouse obesity model induced by high fat diet; assay: Mouse obesity model induced by high fat diet; format: in vivo, C57BL/6Ntaconic mice; conditions: Day 12, 10 mg/kg, oral once a day, high-fat-diet obese mice
Protocol: The effect of melanocortin-4 receptor agonists on obesity was evaluated by using the mouse obesity model induced with a high fat diet.
Five-week-old male C57BL/6Ntaconic mice were fed with a 60 kcal % fat diet (D12492, Research Diet.) for 15 weeks to induce obesity. The compound of Example 1, the compounds of the comparative examples (A95 and A96), and sibutramine as a positive control were prepared in distilled water and orally administered to […] mouse obesity models induced by a high-fat diet once a day from day 1 to day 16. From Day 1 to Day 16, the body weight was measured once a day, the dietary intake was measured five times a week, and drinking water intake was measured twice a week. Blood glucose and glycated hemoglobin were measured on Day 15, and all animals were sacrificed on Day 17. Blood was collected through the abdominal vena cava, and the liver and epididymal adipose tissues were removed and weighed. The collected blood was placed in a heparin tube and centrifuged to separate plasma, and then plasma biochemical analysis was performed.

MC4R [2] = target: T1, MC4R (Homo sapiens, UniProt P32245); assay: Binding affinity, 125I-NDP-α-MSH displacement on membranes; parameters: expressed in transfected cells; host or cells: HEK-293 cells; membranes collected; conditions: HEK-293 MC4R membrane, 0.02 nM 125I-NDP-α-MSH
Text: Five subtypes of melanocortin receptor (MCR) in vivo are known, and it is known that MC4R, which is Subtype 4, is involved in energy metabolism and weight control. Since other MCR subtypes are involved in the regulation of various functions in vivo such as skin pigmentation, energy homeostasis, and exocrine functions, securing selectivity for MC4R of MC4R agonist compounds is very important in preventing possible side effects in the future. Therefore, the receptor binding abilities of MC4R agonists for each MCR subtype were measured.
After the CHO-K1 cell line expressing human recombinant MC1R and the HEK-293 cell lines expressing MC3R, MC4R and MCSR were established, membranes were collected from each cell line. In a 96-well cell culture plate, 3 μg MC1R membrane and 0.04 nM ^125I-NDP-α-MSH per well were reacted at 37° C. for two hours. 3 μg MC3R and MCSR membrane and 0.035 nM ^125I-NDP-α-MSH were reacted at 37° C. for one hour, and 3.12 μg MC4R membrane and 0.02 nM ^125I-NDP-α-MSH were reacted at 37° C. for two hours. At this time, 25 mM HEPES-KOH adsorption buffer (pH 7.0) containing MCR agonist diluted at each step concentration was added to each well and reacted. The reacted solution was transferred to a filter and washed with an adsorption buffer, and then radioactivity was measured. The value excluding the non-specific binding amount in the presence of 1 μM (MC1R) and 3 μM (MC3R, MC4R, MCSR) of NDP-α-MSH from each total binding amount was used as specific binding amounts of ^125I-NDP-α-MSH. The degree to which the ^125I-NDP-α-MSH specific binding was inhibited by the agonist diluted at each step concentration was measured. IC50 was expressed as the concentration of each agonist that inhibited specific binding of 50% of ^125I-NDP-α-MSH.
Target sequence in this assay (P32245 whole entry): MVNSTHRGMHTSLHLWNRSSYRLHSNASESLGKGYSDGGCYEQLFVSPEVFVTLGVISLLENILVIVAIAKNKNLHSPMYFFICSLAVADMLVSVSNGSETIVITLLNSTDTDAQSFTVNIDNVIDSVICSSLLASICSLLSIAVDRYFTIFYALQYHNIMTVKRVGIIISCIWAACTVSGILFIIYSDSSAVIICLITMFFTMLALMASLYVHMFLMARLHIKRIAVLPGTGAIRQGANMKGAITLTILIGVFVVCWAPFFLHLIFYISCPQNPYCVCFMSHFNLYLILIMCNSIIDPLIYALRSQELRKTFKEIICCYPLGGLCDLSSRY

MC4R [3] = target: T1, MC4R; assay: Luciferase assay (HEK MC4R-Luc, CRE-LUC); format: cell-based; parameters: expressed in transfected cells; conditions: HEK MC4R-Luc cells, 5 h incubation
Protocol: In order to measure the agonist ability against MC4R (melanocortin-4 receptor), a cell line that permanently expresses the luciferase gene (CRE-LUC) under the control of MC4R and CRE (cAMP response element) was established. After a mammalian cell expression vector (pCDNA3 (Neo)) (Invitrogen) containing the MC4R gene was prepared, human embryonic kidney (HEK) cell lines were transformed by using Lipofectamine 2000 (Invitrogen) together with a vector (pCRE-Luc)(Stratagen) expressing a luciferase gene (CRE-LUC) under the control of a cAMP response element (CRE). Transformed cell lines (HEK MC4R-Luc) were incubated in a 37° C. incubator in the presence of 5% CO2 for 24 hours by using Dulbecco's Modified Eagles Medium (DMEM) containing 10% Heat-Inactivated Fetal Bovine Serum (GIBCO/BRL). The cell lines were incubated for four days in the presence of Dulbecco's Modified Eagles Medium (DMEM) containing 10 ml of selection medium (10% Heat-Inactivated Fetal Bovine Serum (GIBCO/BRL), 100 unit/ml of penicillin (GIBCO/BRL), 100 unit/ml of streptomycin (GIBCO/BRL), 800 μg/ml of Geneticin (G418) (GIBCO/BRL). The process of removing cells killed by the selection medium by replacing the medium with 10 ml of a new selection medium was repeated three times, once every 4 days. Individual colonies formed by the finally selected and propagated clones were transferred under a microscope to a 24-well cell culture plate containing 1 ml of selection medium per well and incubated for 4 days. Forskolin (SIGMA) was treated to a final concentration of 10 μM, and then incubated for five hours in a 37° C. incubator in the presence of 5% CO2. Each well was treated with 50 μl of a Bright-Glo luciferase reagent (Promega) and left at room temperature for 15 minutes, and then the luminescence of each well was measured by using a luminometer (Victor).
HEK MC4R-Luc cells were added to each well of a 96-well luminometer cell culture plate (Costar) to a size of 2.5×10^4 cells in 100 μl of a culture medium and then incubated in a 37° C. incubator in the presence of 6% CO2 for 18 hours. […] Each well was treated with 50 μl of a Bright-Glo luciferase reagent (Promega) and left at room temperature for five minutes, and then the luminescence of each well was measured by using a luminometer (Victor). […] EC0.5 MSH is expressed as a concentration that induces 50% of the maximum amount of luminescence that can be induced by NDP-α-MSH, and EC50 is expressed as a concentration that induces 50% of the maximum amount of luminescence that can be induced by each agonist. The measurements were measured using statistical software (Prizm).
Target sequence in this assay (P32245 whole entry, species assumed): as the sequence (P32245 whole entry) above

MC4R [4] = target: T1, MC4R; assay: β-arrestin assay (Pathhunter eXpress U2OS cell line); format: cell-based; parameters: expressed in transfected cells; host or cells: U2OS (Pathhunter eXpress β-arrestin cell line); conditions: U2OS cells, 90 min at 37° C.
Text: The melanocortin receptor is a type of G-protein coupled receptor (GPCR) and regulates various physiological responses by transducing signals from many neurotransmitters. When GPCR is phosphorylated, β-arrestin is bound to the phosphorylated part of the receptor and plays an important role in activating various signaling pathways in cells through interaction with other proteins. It is known that, when the melanocortin receptor interacts with an agonist, β-arrestin is mobilized and is involved in the β-arrestin-mediated signaling pathway. Therefore, the activity of the melanocortin receptor can be evaluated through the measurement of β-arrestin.
A Pathhunter eXpress β-arrestin cell line (U2OS cell line) in which Prolink (PK)-tagged MC1R, MC3R, MC4R, MC5R and Enzyme acceptor (EA)-tagged β-arrestin were expressed together was established. When the MCR-PK portion of this cell line is activated, β-arrestin-EA is mobilized, and enzyme acceptor (EA) and Prolink (PK), which are the β-galactosidase enzyme fragments, interact. The activated enzyme hydrolyzes the substrate by β-galactosidase activity to produce a chemiluminescent signal, so that the activity can be measured. After the Pathhunter eXpress β-arrestin cell line (U2OS cell line) was incubated, the cells were inoculated into each well of the cell culture plate and incubated for 48 hours in a 37° C. incubator in the presence of 5% CO2. After the incubation, 5 μl of the sample diluted 5 times with buffer was added, the vehicle concentration was set to 1%, and the MC4R agonist compound diluted at each step concentration was added, followed by reaction at 37° C. for 90 minutes. The activity (%) of each agonist compound is expressed as 100%×(average RLU value of sample−average RLU value of vehicle control)/(average maximum value of control ligand−average RLU value of vehicle control), and the value was analyzed by CBIS data analysis suite (ChemInnovation, CA).
Target sequence in this assay (P32245 whole entry): as above
Target sequence in this assay (P32121 whole entry partner): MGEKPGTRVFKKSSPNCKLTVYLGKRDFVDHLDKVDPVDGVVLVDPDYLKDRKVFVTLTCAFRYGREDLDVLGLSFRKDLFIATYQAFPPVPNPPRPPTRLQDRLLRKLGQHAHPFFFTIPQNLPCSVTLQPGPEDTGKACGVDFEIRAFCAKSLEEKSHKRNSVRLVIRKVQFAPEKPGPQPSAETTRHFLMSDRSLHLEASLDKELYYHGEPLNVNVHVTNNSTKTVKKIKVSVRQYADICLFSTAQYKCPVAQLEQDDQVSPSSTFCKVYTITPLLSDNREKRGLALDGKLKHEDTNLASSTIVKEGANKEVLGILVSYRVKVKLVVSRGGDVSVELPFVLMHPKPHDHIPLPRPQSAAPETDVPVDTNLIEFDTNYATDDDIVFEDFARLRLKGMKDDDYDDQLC

MC4R [5] = target: T1, MC4R; assay: cAMP assay (cAMP Hunter Gs-coupled CHO-K1 cell line); format: cell-based; parameters: expressed in transfected cells; host or cells: CHO-K1 (cAMP Hunter Gs-coupled cell line); conditions: CHO-K1 cells overexpressing MC4R, 30 min at 37° C.
Text: The melanocortin receptor is a type of G-protein coupled receptor (GPCR), and the main role of G-protein is to activate secondary transducers to regulate cellular responses to many physiological stimuli through signal transduction. MC4R is a Gs-coupled receptor, and it is known that if MC4R interacts with an agonist, adenylate cyclase (AC) is activated to increase the concentration of cyclic AMP (cAMP), which is one of the secondary transducers in cells. Therefore, it is possible to evaluate the activity of melanocortin receptors by measuring the generation of cAMP signals.
After cAMP Hunter Gs-coupled cell lines (CHO-K1 cell line) in which each of MC1R, MC3R, MC4R and MCSR was overexpressed were established so that the increase in the cAMP level in cells due to agonist reaction was measurable, the cells were inoculated into each well of a white cell culture plate and incubated for 24 hours in a 37° C. incubator in the presence of 5% CO2. After the incubation, the medium was removed, and 15 μl of a 2:1 HBBS/10 mM HEPES:cAMP XS+Ab reagent was added. After 5 μl of the sample diluted 4 times with buffer was added, the vehicle concentration was set to 1%, and the MC4R agonist compound diluted at each step concentration was added, followed by reaction at 37° C. for 30 minutes. The activity (%) of each agonist compound is expressed as 100%×(average RLU value of sample−average RLU value of vehicle control)/(average RLU value of max control−average RLU value of vehicle control), and the value was analyzed by CBIS data analysis suite (ChemInnovation, CA).
Target sequence in this assay (P32245 whole entry, species assumed): as the sequence (P32245 whole entry) above

Compound	Difference in weight change rate to vehicle [1] [%]	pKi (MC4R [2])	pEC50 (MC4R [3])	pEC50 (MC4R [4])	pEC50 (MC4R [5])
CC(C)CC(N(C)C)C1(c2ccc(Cl)cc2)CCC1 (stereo not drawn) [Sibutramine]	−6.8	–	–	–	–
CC(C)(C)C(=O)N([C@H]1C[C@@H](C(=O)N2CCOCC2)N(C(=O)[C@@H]2CN(C(C)(C)C)C[C@H]2c2ccc(Cl)cc2)C1)[C@H]1CC[C@@H](C)CC1 [Example 3, N-((3S,5S)-1-((3S,4R)-1-(tert-butyl)-4-(4-chlorophenyl)pyrrolidine-3-carbonyl)-5-(morpholine-4-carbonyl)pyrrolidin-3-yl)-N-((1s,4R)-4-methylcyclohexyl)pivalamide hydrochloride]	–	7.62	9.17	8.48	7.64
CCC(=O)N([C@H]1C[C@@H](C(=O)N2CCOCC2)N(C(=O)[C@@H]2CN(C(C)(C)C)C[C@H]2c2ccc(Cl)cc2)C1)[C@H]1CC[C@@H](C)CC1 [Example 2, N-((3S,5S)-1-((3S,4R)-1-(tert-butyl)-4-(4-chlorophenyl)pyrrolidine-3-carbonyl)-5-(morpholine-4-carbonyl)pyrrolidin-3-yl)-N-((1s,4R)-4-methylcyclohexyl)propionamide hydrochloride]	–	6.96	8.97	8.06	7.30
